This is an account of results in ChEMBL document CHEMBL3243956, “Plant antitumor agents. 17. Structural requirements for antineoplastic activity in quassinoids” (1978).

For orientation: T/C means the ratio of treated to control.

Common to all, as to type: functional
In experiment [1] the test system is P388. The experiment in a line: Antileukemic activity against mouse P388 cells allografted in mouse assessed as increase in host survival at 0.5 mg/kg relative to control.
In experiment [2] the test system is P388. As to the kind of experiment: Antileukemic activity against mouse P388 cells allografted in mouse assessed as increase in host survival at 8 mg/kg relative to control.
Experiment [3] relates to P388. The experiment in a line: Antileukemic activity against mouse P388 cells allografted in mouse assessed as increase in host survival at 4 mg/kg relative to control.
The test system of experiment [4] is P388. The experiment in a line: Antileukemic activity against mouse P388 cells allografted in mouse assessed as increase in host survival at 2 mg/kg relative to control.
The subject of experiment [5] is P388. As to the kind of experiment: Antileukemic activity against mouse P388 cells allografted in mouse assessed as increase in host survival at 1 mg/kg relative to control.
Experiment [6] has as its system P388. The experiment in a line: Antileukemic activity against mouse P388 cells allografted in mouse assessed as increase in host survival at 5 mg/kg relative to control.
Experiment [7] concerns P388. As to the kind of experiment: Antileukemic activity against mouse P388 cells allografted in mouse assessed as increase in host survival at 10 mg/kg relative to control.
Experiment [8] has as its system P388. The experiment in a line: Antileukemic activity against mouse P388 cells allografted in mouse assessed as increase in host survival at 2.5 mg/kg relative to control.
For experiment [9], the system named is P388. The experiment in a line: Antileukemic activity against mouse P388 cells allografted in mouse assessed as increase in host survival at 1.25 mg/kg relative to control.
Experiment [10] relates to P388. As to the kind of experiment: Antileukemic activity against mouse P388 cells allografted in mouse assessed as increase in host survival at 0.25 mg/kg relative to control.

On to `CC(=O)O[C@@H]1C(=O)C=C(C)[C@@H]2[C@@H](OC(=O)C=C(C)C)[C@H]3OC(=O)C[C@H]4[C@@H](C)[C@@H](O)[C@]5(O)OC[C@]34[C@H]5[C@@]12C`, for which the T/C came out at 118% in the experiment on P388 [1]; 142% in the experiment with P388 [2]; 142% with P388 [3]; 132% in the experiment with P388 [4]; 121% with P388 [5].
In the case of `CC(=O)OC[C@]12[C@@H]3OC(=O)C[C@H]1[C@@H](C)[C@@H](OC(C)=O)C(=O)[C@@H]2[C@@]1(C)[C@H](OC(C)=O)C(=O)C=C(C)[C@@H]1[C@H]3OC(=O)C=C(C)C`, the T/C in the experiment with P388 [1] worked out at 100%; with P388 [2] it was 102%; in the experiment with P388 [3] it was 101%; with P388 [4], 102%; with P388 [5], 97%.
`CC(=O)O[C@@H]1[C@H](C)[C@@H]2CC(=O)O[C@@H]3[C@H](OC(=O)C=C(C)C)[C@H]4C(C)=CC(=O)[C@@H](OC(C)=O)[C@]4(C)[C@H]4[C@@]1(O)OC[C@@]342`: the T/C amounted to 107% in the experiment with P388 [6], 107% with P388 [7], 107% with P388 [8] and 104% in the experiment with P388 [9].
`CC(C)=CC(=O)O[C@@H]1[C@H]2C(C)=CC(=O)[C@H](O)[C@]2(C)[C@H]2[C@]3(O)OC[C@@]24[C@@H]1OC(=O)C[C@H]4[C@@H](C)[C@H]3O`: the T/C in the experiment with P388 [10] came to 145%; in the experiment on P388 [1], 161%; in the experiment with P388 [4], 191%; in the experiment with P388 [5], 198%.
